5 compounds from patent US20190375778A1, “ADENOSINE DERIVATIVES FOR USE IN THE TREATMENT OF CANCER” (NuCana plc, priority 2016, published 2019) can be followed below.

In one data set the test system is HL-60. The experiment in a line: ATP ViaLight cytotoxicity assay, HL-60. The format is cell-based. As to conditions: Homo sapiens, HL-60, 72 h. The procedure:
(§1) HL-60, CTS, and K-562 are leukaemia cell lines, which were obtained from the American Type Culture Collection (ATCC), Middlesex. HL-60 cell line is of acute promyelocytic leukaemia; CTS cell line is of acute myeloid leukaemia; and K-562 cell line is of chronic myeloid leukaemia.
(§2) HL-60, CTS, and K-562 cell lines were cultured in RPMI-1640 medium (Sigma Aldrich, UK), which was supplemented with 10% Fetal Bovine Serum (FBS) (PAA Laboratories), 1% amphotericin B (5.5 ml) and 1% penicillin/streptomycin (5.5 ml) (PAA Laboratories) and grown in flasks at 37° C. incubator with 5% CO2.
(§3) For inhibitor studies the cell lines were treated in the same way as described above but before treatment with drugs, a number of inhibitors were added: • 1) Nitrobenzylthioinosine (NBTI) (Sigma-Aldrich, St. Louis, Mo.) inhibits hENT1. • 2) A-134974 dihydrochloride hydrate (Sigma-Aldrich, St. Louis, Mo.) inhibits adenosine kinase. • 3) EHNA hydrochloride (Sigma-Aldrich, St. Louis, Mo.) inhibits adenosine deaminase.
ATP ViaLight™ plus assay kit (Lonza, USA: Product No. LT07-121) was used for treating the cells in luminescence compatible 96 well plates (initial concentration of cells was 1×10^4 cells/well) with 8-Cl-A and ProTides, concentrations: 0, 0.1, 0.5, 1, 5 and 10 μM were added to cells, respectively, followed by incubation for 72 hours at 37° C. incubator with 5% CO2. For inhibitor studies, […] concentration of each inhibitor was added before drugs and incubated for 72 hours at 37° C. with 5% CO2.
(§4) After incubation, 50 μl of cell lysis reagent was added to the 96 well plates to release the intracellular ATP, followed by 100 μl of ATP monitoring reagent (AMR). The luminescent values of each well were determined using FLUOstar OPTIMA microplate reader (BMG Labtech) which converted ATP into light by using luciferase enzyme.
(§5) The dose-response curves of cytotoxicity of the drugs was determined using non-linear regression analysis of percentage cell viability versus concentration and EC50 values were obtained. The intracellular assay was conducted in five repeats for each condition. Intracellular assay was determined using paired T test (two-tailed) analysis of 8-ChloroATP/ATP concentration and p values were obtained. Drug stability in human plasma was determined using two-way ANOVA analysis. For all the analysis, Prism Software program (GraphPad Software) was used.

The subject of another data set is CTS. The experiment in a line: ATP ViaLight cytotoxicity assay, CTS. It counts as cell-based. The following applies: 72 h. The procedure: as §1, §2, §3
[…] For inhibitor studies, 10 M concentration of each inhibitor was added before drugs and incubated for 72 hours at 37° C. with 5% CO2.
as §4, §5

In a further data set the test system is HL-60 cell line. The data set is described as follows: Intracellular 8-Cl-ATP/ATP by LC-MS/MS, HL-60. It counts as cell-based. The following applies: for difference in intracellular accumulation of 8-Cl-ATP on inhibiting hENT1: HL-60, with NBTI. On the procedure: Cell lines with 3×10^6 cells/ml were used. Cells were treated with 1 μl of 20 μM of each 8-Cl-A, compound A, compound B and compound D and incubated for 2 hours at 37° C. with 5% CO2. After incubation, the cells were centrifuged (ambient, 1200 rpm, 5 minutes), the supernatant was removed, and the pellet was washed with lml of PBS and centrifuged (ambient, 1200 rpm, 5 minutes). The supernatant was removed, the pellet was reconstituted in 100 μl of PBS and 100 μl of 0.8M perchloric acid. This was then centrifuged (ambient, 1200 rpm, 5 minutes) and 180 μl of the supernatant was transferred to new tubes and stored at −80° C. until time of analysis.
as §3
Cells were treated with 1 μl of 10 μM of each inhibitor and left for 5 minutes before adding the drug. The cells were then incubated for 2 hours at 37° C. with 5% CO2.
The analytes were resolved using an ultra-performance liquid chromatography system (Accela UPLC, Thermo Scientific, UK) equipped with a Biobasic A×5 μm, 50×2.1 mm column (Thermo Electron Corporation, Murrieta, Calif., USA) and mobile phase consisting of a mixture of 10 mM NH4Ac in ACN/H2O (30:70 v/v), pH6.0 (A), and 1 mM NH4Ac in ACN/H2O (30:70 v/v), pH10.5 (B). The mobile phase gradient was employed, comprising: buffer A=95% at 0-0.5 minutes, from 95 to 0% over 1.25 minutes, held at 0% for 1.75 minutes, from 0-95% over 0.1 minutes, ending with 95% for 2.9 minutes, all at a flow rate of 500 μl/min.
For compounds detection a triple stage quadrupole Vantage mass spectrometry system (Thermo Scientific, UK) equipped with an electrospray ion source was used. Samples were analysed in the Multiple Reaction Monitoring, negative ion modes at spray voltage 3000V.
as §5

A short description of data set [1]: Drug stability in human plasma with or without EHNA. It counts as in vitro ADME. The following applies: for plasma concentration compared with the other compounds: human plasma, with or without EHNA. The procedure: 10 ml of human plasma sample (Sera laboratories, UK) was treated with 1 μM of EHNA. 1 ml from this was taken along with 1 μl of 20 µM concentration of each drug (8-Cl-A, compound A, compound B and compound D) which was added to new tubes and incubated for 2 hours at 37° C. with 5% CO2. After incubation, 100 μl of each sample was taken and 300 μl of 100% methanol was added and left on ice for 30 minutes. After 30 minutes, the mixture was centrifuged (14000 rpm, 4° C., 10 minutes), the supernatant was transferred to new tubes and evaporated under speed vac. Then the dried pellet was reconstituted in 100 μl of 10% Acetonitrile and transferred to LC-MS vials for injection in to the UPLC-MS/MS system.
as §5

The test system of the next data set is MDAMB231. The experiment in a line: CellTiterGlo viability assay, MDAMB231. It counts as cell-based, Human. The following applies: for IC50: Homo sapiens, read-out: IC50 MDAMB231. The procedure: In vitro viability assay were performed to assess the effects of compounds on cell viability in selected cell lines over ˜72 hrs using the CellTiterGlo (CTG, Promega-G7573) assay. The tests were performed in duplicates with treatment of compounds at 9 points, 3.16 folds titration in 96 well plates over ˜72 hrs. The compound starting concentrations were 198 μM. Cell viability assay using CellTiterGlo in 96-well plate were performed. Compound treatment 72 hrs, standard growth conditions, duplicates. Compounds were dissolved to 40 mM with thawed […]. Compounds were serially diluted at 3.16 fold in thawed DMSO, and warmed to 37° C. before being dissolved in media (2 μl+200 μl). After compounds were dissolved in media, media containing compounds were warmed to 37° C. in incubator and then compounds in media were added to cell plates (50 μl+50 μl) in duplicates. The compounds' final concentrations were from […] to 19.9 nM. All compound solubilities were checked and recorded again, then the plates were transferred to CO2 tissue culture incubator immediately and incubated for 3 days. DMSO final concentration is 0.5%.
(ATP-based viability assays read luminescence as a measure of living cells.)

[2] abbreviates: with A-134974 (adenosine kinase inhibitor).

Where two headings read alike, the source gives them in different places.

The EC50 is the concentration giving half of the maximal effect. Lower therefore signals a more potent agent. In the case of `C[C@H](NP(=O)(OC[C@H]1O[C@@H](n2c(Cl)nc3c(N)ncnc32)C(O)C1O)Oc1cccc2ccccc12)C(=O)OCc1ccccc1` (stereo partly drawn) [Compound D, (2S)-Benzyl 2-(((((2R,3S,4R,5R)-5-(6-amino-8-chloro-9H-purin-9-yl)-3,4-dihydroxy-tetrahydrofuran-2-yl)methoxynaphthalene-1-yloxy)phosphoryl)amino)propanoate], the EC50 in the data set with HL-60 (Control (no inhibitor)) is 0.33 µM; in the data set with HL-60 (setting [2]), 21.3 µM; in the data set with HL-60 (with NBTI (hENT1 inhibitor)), 1.23 µM; in the data set on CTS (Control (no inhibitor)), 2.64 µM; in the data set on CTS (setting [2]) it was 10.3 µM; in the data set on CTS (with NBTI (hENT1 inhibitor)), 1.46 µM. In the data set on HL-60 cell line, the “difference in intracellular accumulation of 8-Cl-ATP on inhibiting hENT1” value (shortened to “difference … on inhibiting hENT1”) is listed as “did not produce significant difference”. For the same compound, the “plasma concentration compared with the other compounds” value in data set [1] is reported as “highest plasma concentration”.
A word on the IC50: it is the concentration needed to halve the response being measured. In the case of `Nc1ncnc2c1nc(Cl)n2[C@@H]1O[C@H](COP(=O)(NCC(=O)OCc2ccccc2)Oc2ccccc2)[C@@H](O)[C@H]1O` (mixture of isomers) [Compound B, Benzyl 2-(((((2R,3S,4R,5R)-5-(6-amino-8-chloro-9H-purin-9-yl)-3,4-dihydroxytetra-hydrofuran-2-yl)methoxy)(phenoxy)phosphoryl)amino)acetate], in the data set with MDAMB231 (CellTiterGlo, 72 hrs), the “MI% MDAMB231” value was found to be 76%. Further, the IC50 with MDAMB231 (MDA-MB-231, 72 h) was in the range of 5 to 15 µM. Further, the concentration for a half-maximal effect (EC50) in the data set on HL-60 (Control (no inhibitor)) is 0.49 µM; with HL-60 (setting [2]), 14.6 µM; in the data set with HL-60 (with NBTI (hENT1 inhibitor)), 8.76 µM; in the data set with CTS (Control (no inhibitor)) it was 16.3 µM; in the data set with CTS (with NBTI (hENT1 inhibitor)), 63.9 µM. Moreover, the “difference … on inhibiting hENT1” value in the data set with HL-60 cell line is given as “did not produce significant difference”. Also, the “plasma concentration compared with the other compounds” value in data set [1] was “low plasma concentration”.
Take `Nc1ncnc2c1nc(Cl)n2[C@@H]1O[C@H](CO)[C@@H](O)[C@H]1O` [8-chloroadenosine, 8-Chloroadenosine, reference compound]: the “MI% MDAMB231” value with MDAMB231 (CellTiterGlo, 72 hrs) is listed as 74%. In addition, the IC50 in the data set on MDAMB231 (MDA-MB-231, CellTiterGlo, 72 hrs) is 0.1 to 5 µM. The EC50 worked out at 0.64 µM in the data set with HL-60 (Control (no inhibitor)), 0.96 µM with HL-60 (with NBTI (hENT1 inhibitor)), 0.32 µM in the data set with CTS (Control (no inhibitor)) and 5.48 µM in the data set on CTS (with NBTI (hENT1 inhibitor)). In addition, the “8-Cl-ATP/ATP ratio after inhibiting adenosine kinase” value in the data set with HL-60 cell line (HL-60, with A-134974) was “almost zero”. Besides, the “fold increase in human plasma concentration when adenosine deaminase was inhibited by EHNA” value in data set [1] (EHNA versus control) is on record as approximately 3 fold.
As for `Nc1ncnc2c1nc(Cl)n2[C@@H]1O[C@H](COP(=O)(NCC(=O)OC2CCCCC2)Oc2ccccc2)[C@@H](O)[C@H]1O` (mixture of isomers) [Compound A, Cyclohexyl 2-(((((2R,3S,4R,5R)-5-(6-amino-8-chloro-9H-purin-9-yl)-3,4-dihydroxy-tetrahydrofuran-2-yl)methoxy)(phenoxy)phosphoryl)amino)acetate], the figures for the EC50 in the data set on HL-60 (Control (no inhibitor)), in the data set with CTS (setting [2]) and with CTS (with NBTI (hENT1 inhibitor)) were 12.4 µM, 28 µM and 270 µM, respectively. In the data set with HL-60 cell line (HL-60, with A-134974), the “difference in intracellular accumulation of 8-Cl-ATP on blocking adenosine kinase” value is given as “did not produce significant difference”. The “difference … on inhibiting hENT1” value in the data set on HL-60 cell line is “did not produce significant difference”.
Turning to `CC(C)C[C@H](NP(=O)(OC[C@H]1O[C@@H](n2c(Cl)nc3c(N)ncnc32)C(O)C1O)Oc1ccccc1)C(=O)OCc1ccccc1` (stereo partly drawn) [V, 5′-([(Benzyloxy-L-leucin-N-yl)-phenyl]-phosphatyl) 8-chloroadenosine], the “MI% MDAMB231” value in the data set on MDAMB231 (CellTiterGlo, 72 hrs) was 99%. Further, the IC50 in the data set on MDAMB231 (MDA-MB-231, 72 h) fell in the range of 15 to 100 µM.
